From US20250144177A1 (Katholieke Universiteit Leuven, priority 2022, published 2025)
Non-standard residues stand in square brackets, D forms with d. Residues, ends and D or L forms follow the SMILES beside them. No end group written: not given here. Orn = NCCC[C@H](N)C(=O)O

What was measured:
plasmin [1] = molecular target: plasmin (Homo sapiens, UniProt P00747); test: Resistance to proteolytic degradation by plasmin (nano-LC/MS); format: in vitro ADME; settings: peptide 50 ng/ml, 37° C., plasmin 50 μg/ml, pH 7.4
From the text: (§1) The following peptides were compared for resistance against proteolytic degradation: CXCL9 (74-103) with L-amino acids (=L-amino acid peptide); CXCL9 (74-103) with D-amino acids (=D-amino acid peptide) and Acetyl-OOOQONGOOHQOOOQQOVROSQRORQOOTT [SEQ ID NO:2] This is a peptide derived from CXCL9 (74-103) with an acetyl-group on the N-terminus, lysines replaced by ornithine and VL (at positions 88 and 89) replaced by QQ and serine (at position 97) also replaced by ornithine (=ornithine peptide).
(§2) Incubations were performed with peptides at 50 ng/ml and 37° C. for 5 minutes up to 24 hours with trypsin, plasmin or cathepsin G. After the incubation, the reaction was stopped through addition of trifluoroacetic acid (to reach a final pH<4) and purified by nano-LC with on-line detection of eluted peptides by mass spectrometry.
(§3) Sample buffer for incubations with plasmin: 50 mM Tris-HCl 0.5 M NaCl PH 7.4; final plasmin conc. 50 μg/ml Sample buffer for incubations with cathepsin G: 20 mM Tris-HCl+1 mM CaCl2 pH 7.4; final conc. Cathepsin G at 13 mU/litre.

cathepsin G [2] = molecular target: T1, cathepsin G (Homo sapiens, UniProt P08311); test: Resistance to proteolytic degradation by cathepsin G (nano-LC/MS); format: in vitro ADME; settings: peptide 50 ng/ml, 37° C., cathepsin G 13 mU/litre, pH 7.4
T1 sequence (P08311 21-244): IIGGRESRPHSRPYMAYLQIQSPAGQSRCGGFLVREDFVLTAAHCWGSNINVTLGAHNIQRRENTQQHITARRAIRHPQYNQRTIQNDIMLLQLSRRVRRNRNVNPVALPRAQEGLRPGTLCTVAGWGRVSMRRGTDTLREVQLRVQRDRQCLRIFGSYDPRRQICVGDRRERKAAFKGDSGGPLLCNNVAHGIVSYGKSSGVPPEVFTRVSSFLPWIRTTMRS
From the text: as §1, §2, §3

[3] = Resistance to proteolytic degradation by plasmin (nano-LC/MS); format: in vitro ADME; settings: isolated enzyme plasmin; peptide 50 ng/ml, 37° C., plasmin 50 μg/ml, pH 7.4; after 4 h incubation; read-out: degraded with plasmin
From the text: as §1, §2, §3

cathepsin G [4] = test: 20 mM Tris-HCl+1 mM CaCl2 pH 7.4; final conc. Cathepsin G at 13 mU/litre; settings: 37° C., up to 24 hours
trypsin = test: 100 mM Tris-HCl pH 8.5; final trypsin (from Sigma) conc. 250 ng/ml; settings: 37° C., up to 24 hours
plasmin [5] = test: 50 mM Tris-HCl 0.5 M NaCl PH 7.4; final plasmin conc. 50 μg/ml; settings: 37° C., up to 24 hours
[6] = Resistance to proteolytic degradation by cathepsin G (nano-LC/MS); format: in vitro ADME; settings: cathepsin G (isolated protease); peptide 50 ng/ml, 37° C., cathepsin G 13 mU/litre, pH 7.4; after 4 h; read-out: degraded with cathepsin G
From the text: as §1, §2, §3

K. pneumonia = settings: preventive treatment / pre-treatment; cited from earlier work

plasmin (Homo sapiens, UniProt P00747), sequence (P00747 581-810 limits assumed, species assumed): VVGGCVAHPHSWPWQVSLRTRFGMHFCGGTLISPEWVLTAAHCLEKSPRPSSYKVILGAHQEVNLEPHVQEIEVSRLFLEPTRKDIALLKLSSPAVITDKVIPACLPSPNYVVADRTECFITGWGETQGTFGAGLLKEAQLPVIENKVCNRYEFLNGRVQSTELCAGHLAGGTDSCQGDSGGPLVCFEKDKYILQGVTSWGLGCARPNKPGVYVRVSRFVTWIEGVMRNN
plasmin (Homo sapiens, UniProt P00747), sequence (P00747 97-580 partner limits assumed, species assumed): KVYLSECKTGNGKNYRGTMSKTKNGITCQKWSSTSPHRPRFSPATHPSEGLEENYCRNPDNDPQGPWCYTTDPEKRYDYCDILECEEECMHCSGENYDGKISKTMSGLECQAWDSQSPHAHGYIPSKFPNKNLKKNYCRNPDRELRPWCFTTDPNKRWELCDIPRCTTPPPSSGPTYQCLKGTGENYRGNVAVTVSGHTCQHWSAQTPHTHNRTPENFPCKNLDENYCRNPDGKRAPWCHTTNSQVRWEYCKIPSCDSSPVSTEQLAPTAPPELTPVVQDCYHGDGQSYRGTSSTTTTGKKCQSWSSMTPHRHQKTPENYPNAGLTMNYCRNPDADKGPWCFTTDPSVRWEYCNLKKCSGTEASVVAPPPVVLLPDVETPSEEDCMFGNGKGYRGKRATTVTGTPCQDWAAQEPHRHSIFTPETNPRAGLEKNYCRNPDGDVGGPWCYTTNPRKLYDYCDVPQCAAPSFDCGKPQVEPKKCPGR

Molecule: CC(C)C[C@@H](NC(=O)[C@H](NC(=O)[C@@H](CCCCN)NC(=O)[C@@H](CCCCN)NC(=O)[C@@H](CCCCN)NC(=O)[C@@H](CCC(N)=O)NC(=O)[C@@H](Cc1c[nH]cn1)NC(=O)[C@@H](CCCCN)NC(=O)[C@@H](CCCCN)NC(=O)CNC(=O)[C@@H](CC(N)=O)NC(=O)[C@@H](CCCCN)NC(=O)[C@@H](CCC(N)=O)NC(=O)[C@@H](CCCCN)NC(=O)[C@@H](CCCCN)NC(=O)[C@H](N)CCCCN)C(C)C)C(=O)N[C@H](CCCCN)C(=O)N[C@@H](C(=O)N[C@H](CCCNC(=N)N)C(=O)N[C@H](CCCCN)C(=O)N[C@H](CO)C(=O)N[C@H](CCC(N)=O)C(=O)N[C@H](CCCNC(=N)N)C(=O)N[C@H](CO)C(=O)N[C@H](CCCNC(=N)N)C(=O)N[C@H](CCC(N)=O)C(=O)N[C@H](CCCCN)C(=O)N[C@H](CCCCN)C(=O)N[C@@H](C(=O)N[C@@H](C(=O)O)[C@H](C)O)[C@H](C)O)C(C)C [D-amino acid peptide] (H-[dK][dK][dK][dQ][dK][dN]G[dK][dK][dH][dQ][dK][dK][dK][dV][dL][dK][dV][dR][dK][dS][dQ][dR][dS][dR][dQ][dK][dK][dT][dT]-OH; N-terminus and C-terminus assumed)
- resistance to plasmin (plasmin [1]; between 5 min and 8 hours): resistant
- metabolised at 24 h, 50 ng/ml (cathepsin G [2]; cathepsin G (isolated protease), after 24 h): 68%
- degradation with cathepsin G (cathepsin G [2]; up to 8 h): less than 5%

Molecule: CC(=O)N[C@@H](CCCN)C(=O)N[C@@H](CCCN)C(=O)N[C@@H](CCCN)C(=O)N[C@@H](CCC(N)=O)C(=O)N[C@@H](CCCN)C(=O)N[C@@H](CC(N)=O)C(=O)NCC(=O)N[C@@H](CCCN)C(=O)N[C@@H](CCCN)C(=O)N[C@@H](Cc1c[nH]cn1)C(=O)N[C@@H](CCC(N)=O)C(=O)N[C@@H](CCCN)C(=O)N[C@@H](CCCN)C(=O)N[C@@H](CCCN)C(=O)N[C@@H](CCC(N)=O)C(=O)N[C@@H](CCC(N)=O)C(=O)N[C@@H](CCCN)C(=O)N[C@H](C(=O)N[C@@H](CCCNC(=N)N)C(=O)N[C@@H](CCCN)C(=O)N[C@@H](CO)C(=O)N[C@@H](CCC(N)=O)C(=O)N[C@@H](CCCNC(=N)N)C(=O)N[C@@H](CCCN)C(=O)N[C@@H](CCCNC(=N)N)C(=O)N[C@@H](CCC(N)=O)C(=O)N[C@@H](CCCN)C(=O)N[C@@H](CCCN)C(=O)N[C@H](C(=O)N[C@H](C(=O)O)[C@@H](C)O)[C@@H](C)O)C(C)C [Ornithine peptide, Acetyl-OOOQONGOOHQOOOQQOVROSQRORQOOTT] (Ac-[Orn][Orn][Orn]Q[Orn]NG[Orn][Orn]HQ[Orn][Orn][Orn]QQ[Orn]VR[Orn]SQR[Orn]RQ[Orn][Orn]TT-OH; C-terminus assumed)
- cleavage after arginine with plasmin (plasmin [1]; after 5 min): < 10%
- metabolised at 4 h [3]: > 70%
- cleavage with cathepsin G (cathepsin G [2]; 5 min up to 4 h incubation): no cleavage

Molecule: Acetyl-OOOQONGOOHQOOOQQOVROSQRORQOOTT
- not cleaved (cathepsin G [4]): no cleavage with cathepsin G after 5 min up to 4 h incubation

Molecule: CXCL9 (74-103) with D-amino acids
- not cleaved (trypsin): fully resistant to trypsin at incubations from 5 min. up to 4 hours
- not cleaved (plasmin [5]): resistant to plasmin at incubations between 5 min and 8 hours

Molecule: KKKQKNGKKHQKKKVLKVRKSQRSRQKKTT [CXCL9 (74-103)]
- degradation with plasmin (plasmin [1]; after 5 min): partial degraded
- degradation with plasmin (plasmin [1]; after 30 minutes): fully degradation
- stability to cathepsin G (cathepsin G [2]; up to 2 h): stable
- metabolised at 4 h, 50 ng/ml [6]: > 90%

B1: VAP-1/SSAO: an endothelial bound adhesion molecule with amine oxidase activity involved in neutrophil egress from the microvasculature (protein, UniProt Q16853 1-763, looked up)
Amine oxidase …: MNQKTILVLLILAVITIFALVCVLLVGRGGDGGEPSQLPHCPSVSPSAQPWTHPGQSQLFADLSREELTAVMRFLTQRLGPGLVDAAQARPSDNCVFSVELQLPPKAAALAHLDRGSPPPAREALAIVFFGRQPQPNVSELVVGPLPHPSYMRDVTVERHGGPLPYHRRPVLFQEYLDIDQMIFNRELPQASGLLHHCCFYKHRGRNLVTMTTAPRGLQSGDRATWFGLYYNISGAGFFLHHVGLELLVNHKALDPARWTIQKVFYQGRYYDSLAQLEAQFEAGLVNVVLIPDNGTGGSWSLKSPVPPGPAPPLQFYPQGPRFSVQGSRVASSLWTFSFGLGAFSGPRIFDVRFQGERLVYEISLQEALAIYGGNSPAAMTTRYVDGGFGMGKYTTPLTRGVDCPYLATYVDWHFLLESQAPKTIRDAFCVFEQNQGLPLRRHHSDLYSHYFGGLAETVLVVRSMSTLLNYDYVWDTVFHPSGAIEIRFYATGYISSAFLFGATGKYGNQVSEHTLGTVHTHSAHFKVDLDVAGLENWVWAEDMVFVPMAVPWSPEHQLQRLQVTRKLLEMEEQAAFLVGSATPRYLYLASNHSNKWGHPRGYRIQMLSFAGEPLPQNSSMARGFSWERYQLAVTQRKEEEPSSSSVFNQNDPWAPTVDFSDFINNETIAGKDLVAWVTAGFLHIPHAEDIPNTVTVGNGVGFFLRPYNFFDEDPSFYSADSIYFRGDQDAGACEVNPLACLPQAAACAPDLPAFSHGGFSHN
- bacterial load (K. pneumonia): increased
- neutrophil recruitment / migration (K. pneumonia): decreased
